Laboratory results taken from PubChem BioAssay (NCI).
Several values for one entry are separate records, joined by “and”; a condition that tells them apart may be missing. Equal values may be shown once.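 Five compound concentrations were applied to cells in 96-well plates for 48 hours; endpoints were derived by simple linear interpolation of the resulting dose-response curve. Here, GI50 denotes the concentration required for 50% inhibition of growth. The concentration for full growth arrest is given as TGI.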

Assays:
Experiment in all cases: NCI tumour cell line growth inhibition, 48 h
DMS 114 small cell lung = system: DMS 114 small cell lung
HCC-2998 colon = system: HCC-2998 colon
HT29 colon = system: HT29 colon
KM12 colon = system: KM12 colon
NCI-H460 lung = system: NCI-H460 lung
RPMI-8226 leukemia = system: RPMI-8226 leukemia
SNB-75 CNS = system: SNB-75 CNS
SW-620 colon = system: SW-620 colon
SR leukemia = system: SR leukemia
DU-145 prostate = system: DU-145 prostate

SMILES	TGI (DMS 114 small cell lung)	TGI (HCC-2998 colon) [µM]	TGI (HT29 colon) [µM]	TGI (KM12 colon) [µM]	TGI (NCI-H460 lung) [µM]	TGI (RPMI-8226 leukemia) [µM]	TGI (SNB-75 CNS) [µM]	TGI (SW-620 colon)	TGI (SR leukemia)	TGI (DU-145 prostate) [µM]	GI50 (DMS 114 small cell lung)	GI50 (DU-145 prostate) [µM]	GI50 (SW-620 colon)	GI50 (HT29 colon) [µM]	GI50 (KM12 colon) [µM]	GI50 (RPMI-8226 leukemia) [µM]	GI50 (SR leukemia) [µM]	GI50 (HCC-2998 colon) [µM]	GI50 (NCI-H460 lung) [µM]	GI50 (SNB-75 CNS) [µM]
NC(=O)c1cccc([N+](=O)[O-])c1	> 100 µM	> 100	> 100	> 100	> 100	> 100	> 100	> 100 µM												
COc1c(O)c(C=O)c2c(O)c(-c3c(C)cc4c(C(C)C)c(OC)c(O)c(C=O)c4c3O)c(C)cc2c1C(C)C	6.93 µM	5.34	15.3	16	16.1	22.4	9.38	17.7 µM	22.7 µM											
O=C1NC(Nc2ccccc2)=NC(C(F)(F)F)(C(F)(F)F)N1		> 100	> 100	> 100	> 100	> 100	87.6	> 100 µM	> 100 µM	> 100										
[Cl][Sn]([c]1ccccc1)([c]1ccccc1)[c]1ccccc1	0.062 µM and 0.102 µM							0.104 µM and 0.0229 µM	0.86 µM and 0.552 µM and 0.112 µM	0.428	0.0237 µM and 0.0186 µM	0.21	0.0303 µM and < 0.01 µM							
O=C1C(Cl)=C(OCCCl)C(=O)c2c(O)ccc(O)c21		35.4	12.5	40.5	40.7	0.993	26.3	9.9 µM	0.397 µM	32.2										
CN(C)c1ccc(/C(F)=C(F)/C(F)=C(F)/C(F)=C(\F)c2ccc(Br)cc2)cc1		> 100	98	> 100	> 100	> 100	92.9	> 100 µM	> 100 µM	> 63.7										
Cc1ccc([S@](=O)c2occc2C=O)cc1		29.3	27.2	31.5	33.8	8.04	30.9	3.63 µM	5.08 µM	33.1										
NC(=O)NNc1nc(-c2ccccc2)cs1		> 100	> 100	> 100	> 100	> 100	> 100	> 100 µM	> 100 µM	> 100										
NS(=O)(=O)c1ccc(/C=C/c2ccc(F)cc2)cc1		> 100	> 100	67	> 100	> 100	> 100	> 100 µM	> 100 µM	> 100				29.4	16.3	42.3	10.5			
CC(=O)OCC1OC(SC2=N/C(=C\c3ccc(Br)s3)C(=O)N2CN2CCOCC2)C(OC(C)=O)C(OC(C)=O)C1OC(C)=O (centres undefined)		38.7	34.2	35.3	38.6	27	68.3	38.9 µM	34.8 µM	30.6										
Cc1csc(NC23CC4CC(CC(C4)C2)C3)[n+]1C(P(=O)([O-])O)P(=O)(O)O (centres undefined)		> 100	> 100	> 100	> 100	> 100	> 100	> 100 µM	> 100 µM	> 100										
N#CC1(C#N)NC(c2cccs2)C(C#N)(C#N)NC1c1cccs1 (centres undefined)		93.3	> 100	> 100	> 100	73.1	> 100	> 100 µM	77.3 µM	> 100										
CC(NC(=O)C(NC(=O)CNC(=O)OC(C)(C)C)C(C)C)C(=O)Oc1c(Cl)c(Cl)c(Cl)c(Cl)c1Cl (centres undefined)		39.4	68.5	30.4	39.3	> 100	78.7	60 µM	> 100 µM	49.3										
CC(=O)Oc1cc2c(cc1OC(C)=O)OCC(c1ccc(C)cc1)C2 (centres undefined)	18.7 µM	16.4	73.6	58.6	39.1	63.1	32.3	47.3 µM												
O=C(N/N=C/C=C/c1ccc([N+](=O)[O-])o1)c1cc2ccccc2cc1O		2.59	7.05	2.85	6.9	6.83	6.12	3.05 µM	7.69 µM	8.67		2.26	1.05 µM	2.15	1.42	1.53	0.308	1.31	1.64	1.97
